Data published in ChEMBL document CHEMBL3886330, “Substituted azoanthracene derivatives and intermediates for preparation thereof” (2015).

Biological target: Glucagon-like peptide 1 receptor (Homo sapiens, UniProt P43220)
Format: functional

Sequence of Glucagon-like peptide 1 receptor (P43220 whole entry): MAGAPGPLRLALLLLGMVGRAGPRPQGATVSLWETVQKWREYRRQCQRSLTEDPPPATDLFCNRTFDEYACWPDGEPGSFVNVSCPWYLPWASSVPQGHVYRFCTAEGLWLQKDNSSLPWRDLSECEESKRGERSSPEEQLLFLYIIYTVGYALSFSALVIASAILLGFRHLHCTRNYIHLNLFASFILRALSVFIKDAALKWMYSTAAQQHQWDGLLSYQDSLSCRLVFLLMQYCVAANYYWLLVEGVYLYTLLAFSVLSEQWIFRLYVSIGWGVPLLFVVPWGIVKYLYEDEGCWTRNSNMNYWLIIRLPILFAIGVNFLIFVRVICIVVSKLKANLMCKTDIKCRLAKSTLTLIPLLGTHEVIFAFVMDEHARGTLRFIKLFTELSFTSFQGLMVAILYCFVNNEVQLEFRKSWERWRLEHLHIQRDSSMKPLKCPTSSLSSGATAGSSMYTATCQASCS

EC50 | SMILES
126 nM | CC[C@@H](NC(=O)N1Cc2cc3c(cc2C[C@H]1C(=O)N[C@@H](Cc1ccc(-c2ccnc(C)c2C)cc1)C(=O)O)OC[C@H](c1ccc(OCc2ccc(Cl)c(Cl)c2)cc1)O3)c1ccccc1
410 nM | N#Cc1ccc(-c2ccc(C[C@H](NC(=O)[C@@H]3Cc4cc5c(cc4CN3C(=O)c3ccccc3)OC(c3ccc(OCc4ccc(Cl)c(Cl)c4)cc3)CN5)C(=O)O)cc2)cc1 (stereo partly specified)
288 nM | C[C@@H](NC(=O)N1Cc2cc3c(cc2C[C@H]1C(=O)N[C@@H](Cc1ccc(-c2ccc(C#N)cc2)cc1)C(=O)O)OC[C@H](c1ccc(OCc2ccc(Cl)c(Cl)c2)cc1)O3)c1ccccc1
20 nM | CC[C@@H](c1ccccc1)N1Cc2cc3c(cc2C[C@H]1C(=O)N[C@@H](Cc1ccc(-c2ccnc(C)c2)cc1)C(=O)O)OC[C@H](c1ccc(OCc2ccc(Cl)c(Cl)c2)cc1)O3
222 nM | CC[C@@H](c1ccccc1)N1Cc2cc3c(cc2C[C@H]1C(=O)N[C@@H](Cc1ccc(-c2ccnc(F)c2)cc1)C(=O)O)OC[C@H](c1ccc(OCc2ccc(Cl)c(Cl)c2)cc1)O3
115 nM | Cc1nccc(Oc2ccc(C[C@H](NC(=O)[C@@H]3Cc4cc5c(cc4CN3C(=O)N[C@H](C)c3ccccc3)O[C@@H](c3ccc(OCc4ccc(Cl)c(Cl)c4)cc3)CO5)C(=O)O)cc2)c1C
13 nM | CCc1cc(-c2ccc(C[C@H](NC(=O)[C@@H]3Cc4cc5c(cc4CN3[C@@H](CC)c3ccccc3)O[C@@H](c3ccc(OCc4ccc(Cl)c(Cl)c4)cc3)CO5)C(=O)O)cc2)ccn1
154 nM | CC[C@@H](c1ccccc1)N1Cc2cc3c(cc2C[C@H]1C(=O)N[C@@H](Cc1ccc(-c2ccc(C#N)nc2)cc1)C(=O)O)OC[C@H](c1ccc(OCc2ccc(Cl)c(Cl)c2)cc1)O3
156 nM | Cc1nc(C(=O)N2Cc3cc4c(cc3C[C@H]2C(=O)N[C@@H](Cc2ccc(-c3ccc(C#N)cc3)cc2)C(=O)O)OC[C@H](c2ccc(OCc3ccc(Cl)c(Cl)c3)cc2)O4)c(C)o1
133 nM | Cc1nccc(-c2ccc(C[C@H](NC(=O)[C@@H]3Cc4cc5c(cc4CN3C(=O)N[C@H](C)c3ccccc3)O[C@@H](c3ccc(OCc4ccc(Cl)cc4Cl)cc3)CO5)C(=O)O)cc2)c1C
657 nM | N#Cc1ccc(-c2ccc(C[C@H](NC(=O)[C@@H]3Cc4cc5c(cc4CN3Cc3ccccc3C#N)OC(c3ccc(OCc4ccc(Cl)c(Cl)c4)cc3)CO5)C(=O)O)cc2)cc1 (stereo partly specified)

Second part, the compound before the results:

SMILES | EC50
Cc1nccc(-c2ccc(C[C@H](NC(=O)[C@@H]3Cc4cc5c(cc4CN3C(=O)c3cccc(Cl)c3)O[C@@H](c3ccc(OCc4ccc(Cl)c(Cl)c4)cc3)CO5)C(=O)O)cc2)c1C | 22 nM
Cc1nccc(Oc2ccc(C[C@H](NC(=O)[C@@H]3Cc4cc5c(cc4CN3C(=O)OCC(C)C)O[C@@H](c3ccc(OCc4ccc(Cl)c(Cl)c4)cc3)CO5)C(=O)O)cc2)c1C | 311 nM
Cc1nc(C(=O)N2Cc3cc4c(cc3C[C@H]2C(=O)N[C@@H](Cc2ccc(Oc3ccnc(C)c3C)cc2)C(=O)O)OC[C@H](c2ccc(OCc3ccc(Cl)c(Cl)c3)cc2)O4)co1 | 177 nM
CC(=O)Nc1nc(C)c(S(=O)(=O)N2Cc3cc4c(cc3C[C@H]2C(=O)N[C@@H](Cc2ccc(-c3ccnc(C)c3C)cc2)C(=O)O)OC[C@H](c2ccc(OCc3ccc(Cl)c(Cl)c3)cc2)O4)s1 | 24 nM
Cc1nccc(-c2ccc(C[C@H](NC(=O)[C@@H]3Cc4cc5c(cc4CN3C(=O)c3cnccn3)O[C@@H](c3ccc(OCc4ccc(Cl)c(Cl)c4)cc3)CO5)C(=O)O)cc2)c1C | 166 nM
CCNc1nc(C)c(S(=O)(=O)N2Cc3cc4c(cc3C[C@H]2C(=O)N[C@@H](Cc2ccc(-c3ccc(F)cc3)cc2)C(=O)O)OCC(c2ccc(OCc3ccc(Cl)c(Cl)c3)cc2)O4)s1 (stereo partly specified) | 131 nM
Cc1nccc(-c2ccc(C[C@H](NC(=O)[C@@H]3Cc4cc5c(cc4CN3S(C)(=O)=O)O[C@@H](c3ccc(OCc4ccc(Cl)c(Cl)c4)cc3)CO5)C(=O)O)cc2)c1C | 267 nM
Cc1nccc(-c2ccc(C[C@H](NC(=O)[C@@H]3Cc4cc5c(cc4CN3C(=O)OCc3ccccc3)O[C@@H](c3ccc(OCc4ccc(Cl)c(Cl)c4)cc3)CO5)C(=O)O)cc2)c1C | 23 nM
Cc1nc(NC2CCCC2)sc1S(=O)(=O)N1Cc2cc3c(cc2C[C@H]1C(=O)N[C@@H](Cc1ccc(-c2ccc(C#N)cc2)cc1)C(=O)O)OCC(c1ccc(OCc2ccc(Cl)c(Cl)c2)cc1)O3 (stereo partly specified) | 70 nM
Cc1nc(C(=O)N2Cc3cc4c(cc3C[C@H]2C(=O)N[C@@H](Cc2ccc(-c3ccnc(C)c3C)cc2)C(=O)O)OC[C@H](c2ccc(OCc3ccc(Cl)c(Cl)c3)cc2)O4)c(C(F)(F)F)o1 | 42 nM
Cc1nc(NCC2CC2)sc1S(=O)(=O)N1Cc2cc3c(cc2C[C@H]1C(=O)N[C@@H](Cc1ccc(-c2ccc(C#N)cc2)cc1)C(=O)O)OCC(c1ccc(OCc2ccc(Cl)c(Cl)c2)cc1)O3 (stereo partly specified) | 75 nM
Cc1nccc(-c2ccc(C[C@H](NC(=O)[C@@H]3Cc4cc5c(cc4CN3C(=O)OCC(C)(C)C)O[C@@H](c3ccc(OCc4ccc(Cl)c(Cl)c4)cc3)CO5)C(=O)O)cc2)c1C | 87 nM
Cc1nccc(-c2ccc(C[C@H](NC(=O)[C@@H]3Cc4cc5c(cc4CN3C(=O)N(C(C)C)C(C)C)O[C@@H](c3ccc(OCc4ccc(Cl)c(Cl)c4)cc3)CO5)C(=O)O)cc2)c1C | 73 nM
CCNc1nc(C)c(S(=O)(=O)N2Cc3cc4c(cc3C[C@H]2C(=O)N[C@@H](Cc2ccc(-c3ccc(Cl)cc3)cc2)C(=O)O)OCC(c2ccc(OCc3ccc(Cl)c(Cl)c3)cc2)O4)s1 (stereo partly specified) | 264 nM
CCCNc1nc(C)c(S(=O)(=O)N2Cc3cc4c(cc3C[C@H]2C(=O)N[C@@H](Cc2ccc(-c3ccc(C#N)cc3)cc2)C(=O)O)OCC(c2ccc(OCc3ccc(Cl)c(Cl)c3)cc2)O4)s1 (stereo partly specified) | 67 nM
CCCCOC(=O)N1Cc2cc3c(cc2C[C@H]1C(=O)N[C@@H](Cc1ccc(-c2ccnc(C)c2C)cc1)C(=O)O)OC[C@H](c1ccc(OCc2ccc(Cl)c(Cl)c2)cc1)O3 | 64 nM
Cc1ccc(COc2ccc(C3COc4cc5c(cc4O3)CN(S(=O)(=O)c3sc(N)nc3C)[C@H](C(=O)N[C@@H](Cc3ccc(-c4ccc(C#N)cc4)cc3)C(=O)O)C5)cc2)cc1Cl (stereo partly specified) | 434 nM
Cc1nccc(-c2ccc(C[C@H](NC(=O)[C@@H]3Cc4cc5c(cc4CN3C(=O)c3oc4ccccc4c3C)O[C@@H](c3ccc(OCc4ccc(Cl)c(Cl)c4)cc3)CO5)C(=O)O)cc2)c1C | 172 nM
Cc1nccc(-c2ccc(C[C@H](NC(=O)[C@@H]3Cc4cc5c(cc4CN3C(=O)Nc3ccc(Cl)cc3)O[C@@H](c3ccc(OCc4ccc(Cl)c(Cl)c4)cc3)CO5)C(=O)O)cc2)c1C | 96 nM
CCCc1cc(-c2ccc(C[C@H](NC(=O)[C@@H]3Cc4cc5c(cc4CN3[C@@H](CC)c3ccccc3)O[C@@H](c3ccc(OCc4ccc(Cl)c(Cl)c4)cc3)CO5)C(=O)O)cc2)ccn1 | 83 nM
